This note sets out measurements from ChEMBL document CHEMBL1909046, “DrugMatrix in vitro pharmacology data”.

The IC50 is the concentration that gives 50% inhibition. The term Ki denotes the dissociation constant of the complex between target and ligand, obtained from inhibition or displacement.

In data set [1] the target is Delta-type opioid receptor (Homo sapiens, UniProt P41143). It counts as cell membranes, HEK293, Membrane. Also: in other assays of this panel Not Active means under 50% inhibition at 10 µM.
Sequence of Delta-type opioid receptor (P41143 whole entry): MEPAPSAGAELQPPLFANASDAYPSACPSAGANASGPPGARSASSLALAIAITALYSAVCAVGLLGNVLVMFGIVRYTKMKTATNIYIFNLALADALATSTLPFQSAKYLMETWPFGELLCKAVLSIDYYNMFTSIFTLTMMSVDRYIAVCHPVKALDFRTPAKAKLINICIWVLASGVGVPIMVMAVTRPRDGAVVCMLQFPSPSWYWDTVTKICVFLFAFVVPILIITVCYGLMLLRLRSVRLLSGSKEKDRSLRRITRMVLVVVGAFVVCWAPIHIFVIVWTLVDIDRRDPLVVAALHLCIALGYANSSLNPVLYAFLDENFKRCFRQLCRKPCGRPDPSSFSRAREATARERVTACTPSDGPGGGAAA
A short description of data set [2]: DRUGMATRIX: Leukotriene, BLT (LTB4) radioligand binding (ligand: [3H]LTB4). It counts as cell membranes, Membrane. The conditions noted are these: u-937; Not Active = under 50% inhibition at 10 µM.
Data set [3] addresses Beta-2 adrenergic receptor (Homo sapiens, UniProt P07550). In words: DRUGMATRIX: Adrenergic beta2 radioligand binding (ligand: [3H] CGP-12177). It counts as cell membranes, Membrane. The conditions noted are these: cho; Not Active = under 50% inhibition at 10 µM.
For a further data set, the target named is D(3) dopamine receptor (Homo sapiens, UniProt P35462). In words: DRUGMATRIX: Dopamine D3 radioligand binding (ligand: [3H] Spiperone). It counts as cell membranes, CHO, Membrane.
Sequence of D(3) dopamine receptor (P35462 whole entry): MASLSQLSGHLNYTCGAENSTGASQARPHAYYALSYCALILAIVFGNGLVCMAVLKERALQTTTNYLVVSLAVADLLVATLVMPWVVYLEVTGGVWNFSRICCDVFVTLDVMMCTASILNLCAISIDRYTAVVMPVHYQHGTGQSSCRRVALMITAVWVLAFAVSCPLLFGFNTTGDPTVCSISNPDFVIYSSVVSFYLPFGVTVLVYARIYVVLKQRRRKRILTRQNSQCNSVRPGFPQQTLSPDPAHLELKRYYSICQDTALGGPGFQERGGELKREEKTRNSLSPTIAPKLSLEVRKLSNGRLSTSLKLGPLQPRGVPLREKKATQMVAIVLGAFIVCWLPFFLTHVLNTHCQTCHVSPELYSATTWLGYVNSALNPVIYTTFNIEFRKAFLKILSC
Data set [4] in a line: DRUGMATRIX: Glutamate, NMDA, Phencyclidine radioligand binding (ligand: [3H] TCP). It counts as cell membranes, Rattus norvegicus, Wistar, Cerebral cortex, Membrane. The conditions noted are these: Not Active = under 50% inhibition at 10 µM.
The next data set has as its target T1, Leukotriene C4 synthase (Cavia porcellus, UniProt A6XA80).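 Also: enzyme inhibition assay of leukotriene C4 synthase, using LTA4 as the substrate; in other assays of this panel Not Active means under 50% inhibition at 10 µM.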
T1 sequence (A6XA80 whole entry): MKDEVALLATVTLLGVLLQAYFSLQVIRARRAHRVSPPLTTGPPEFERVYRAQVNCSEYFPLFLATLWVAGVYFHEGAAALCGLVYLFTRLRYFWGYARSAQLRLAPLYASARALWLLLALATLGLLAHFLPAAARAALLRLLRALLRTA
It counts as tissue-based, Lung.

In a further data set the target is T2, Cytochrome P450 1A2 (Homo sapiens, UniProt P05177). Also: in other assays of this panel Not Active means under 50% inhibition at 10 µM.
T2 sequence (P05177 whole entry): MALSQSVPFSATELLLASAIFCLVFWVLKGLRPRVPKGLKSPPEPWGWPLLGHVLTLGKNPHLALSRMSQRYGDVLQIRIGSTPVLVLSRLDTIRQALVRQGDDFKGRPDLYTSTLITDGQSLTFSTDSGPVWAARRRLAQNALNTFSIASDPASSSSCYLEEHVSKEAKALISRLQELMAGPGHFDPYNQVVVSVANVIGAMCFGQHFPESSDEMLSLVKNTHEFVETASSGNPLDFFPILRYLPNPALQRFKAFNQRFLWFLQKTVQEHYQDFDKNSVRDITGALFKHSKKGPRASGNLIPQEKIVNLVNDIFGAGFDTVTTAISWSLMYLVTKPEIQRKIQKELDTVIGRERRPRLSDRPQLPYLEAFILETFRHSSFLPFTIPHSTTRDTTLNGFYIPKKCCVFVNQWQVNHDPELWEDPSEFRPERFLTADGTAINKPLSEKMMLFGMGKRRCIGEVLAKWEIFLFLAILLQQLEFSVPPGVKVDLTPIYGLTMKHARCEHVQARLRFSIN
The conditions noted are these: bti-tn-5b1-4.

Sequence of Beta-2 adrenergic receptor (P07550 whole entry): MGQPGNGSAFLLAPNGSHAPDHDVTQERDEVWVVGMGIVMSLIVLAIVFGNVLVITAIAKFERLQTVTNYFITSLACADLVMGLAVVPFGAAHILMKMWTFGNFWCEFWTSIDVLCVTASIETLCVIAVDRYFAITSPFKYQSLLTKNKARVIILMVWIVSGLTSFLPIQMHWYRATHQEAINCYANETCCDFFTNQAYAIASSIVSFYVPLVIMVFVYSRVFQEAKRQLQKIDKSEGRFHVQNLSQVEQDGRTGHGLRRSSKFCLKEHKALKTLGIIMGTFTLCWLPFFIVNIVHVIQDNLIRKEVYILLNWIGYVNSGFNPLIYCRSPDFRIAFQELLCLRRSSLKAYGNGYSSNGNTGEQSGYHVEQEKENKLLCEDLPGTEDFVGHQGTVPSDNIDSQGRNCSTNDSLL

As to `Cc1c(C)c2c(c(C)c1O)CCC(C)(COc1ccc(CC3SC(=O)NC3=O)cc1)O2` (stereo not drawn) [TROGLITAZONE], the IC50 result (in data set [1] (hek293); in data set [2]; in data set [3]; on D(3) dopamine receptor (cho); in data set [4]; against Leukotriene C4 synthase) was “Not Active” in each case. In addition, on Cytochrome P450 1A2, the IC50 entry is reported as “Not Active”. Besides, the Ki result (in data set [2]; in data set [4]; on Cytochrome P450 1A2) was “Not Active” in each case.

For the compound `c1ccc([C@H]2CN3CCSC3=N2)cc1` [LEVAMISOLE], the IC50 result (in data set [1] (hek293); in data set [2]; in data set [3]; on D(3) dopamine receptor (cho); in data set [4]; on Leukotriene C4 synthase) was “Not Active” in each case. The IC50 entry on Cytochrome P450 1A2 was “Not Active”. Besides, the Ki result (in data set [2]; in data set [4]; at Cytochrome P450 1A2) was “Not Active” throughout.

With `CC[C@]1(O)C[C@H]2CN(CCc3c([nH]c4ccccc34)[C@@](C(=O)OC)(c3cc4c(cc3OC)N(C=O)[C@H]3[C@@](O)(C(=O)OC)[C@H](OC(C)=O)[C@]5(CC)C=CCN6CC[C@]43[C@@H]65)C2)C1` [VINCRISTINE], the IC50 result (in data set [1] (hek293); in data set [2]; in data set [3]; on D(3) dopamine receptor (cho); in data set [4]; against Leukotriene C4 synthase) was “Not Active” in each case. Besides, the IC50 result on Cytochrome P450 1A2 is “Not Active”. In addition, the Ki entry (in data set [2]; in data set [4]; at Cytochrome P450 1A2) was “Not Active” in each case.

With `O=c1ncn2nc(Sc3ccc(F)cc3F)ccc2c1-c1c(Cl)cccc1Cl` [NEFLAMAPIMOD], the IC50 entry (in data set [1] (hek293); in data set [2]; in data set [3]; at D(3) dopamine receptor (cho); in data set [4]; against Leukotriene C4 synthase) was “Not Active” each time. Besides, the IC50 entry on Cytochrome P450 1A2 is “Not Active”. The Ki entry (in data set [2]; in data set [4]; at Cytochrome P450 1A2) was “Not Active” in each case.

Take `NS(=O)(=O)c1cc2c(cc1Cl)NC(C(Cl)Cl)NS2(=O)=O` (stereo not drawn) [TRICHLORMETHIAZIDE]: the IC50 result (in data set [1] (hek293); in data set [2]; in data set [3]; at D(3) dopamine receptor (cho); in data set [4]; on Leukotriene C4 synthase) was “Not Active” in each case. Also, the IC50 result against Cytochrome P450 1A2 is “Not Active”. Also, the Ki result (in data set [2]; in data set [4]; on Cytochrome P450 1A2) was “Not Active” each time.

`CCCOc1ccccc1-c1nc2nn[nH]c2c(=O)[nH]1` [ZAPRINAST]: the IC50 result (in data set [1] (hek293); in data set [2]; in data set [3]; on D(3) dopamine receptor (cho); in data set [4]; against Leukotriene C4 synthase) was “Not Active” throughout. On Cytochrome P450 1A2, the IC50 result is given as “Not Active”. The Ki entry (in data set [2]; in data set [4]; at Cytochrome P450 1A2) was “Not Active” each time.

As for `N#CC(C#N)=Cc1ccc(O)c(O)c1` [TYRPHOSTIN 23], the IC50 result (in data set [1] (hek293); in data set [2]; in data set [3]; at D(3) dopamine receptor (cho); in data set [4]; against Leukotriene C4 synthase) was “Not Active” each time. In addition, on Cytochrome P450 1A2, the half-inhibitory concentration (IC50) entry is given as “Not Active”. Moreover, the Ki entry (in data set [2]; in data set [4]; on Cytochrome P450 1A2) was “Not Active” throughout.

`OCCN(CCO)c1nc(N2CCCCC2)c2nc(N(CCO)CCO)nc(N3CCCCC3)c2n1` [DIPYRIDAMOLE]: the IC50 entry (in data set [1] (hek293); in data set [2]; in data set [3]; at D(3) dopamine receptor (cho); in data set [4]; against Leukotriene C4 synthase) was “Not Active” each time. The Ki entry in data set [2] and in data set [4] was “Not Active” throughout.

With `Cn1ccnc1S` [METHIMAZOLE], the IC50 result (in data set [1] (hek293); in data set [2]; in data set [3]; on D(3) dopamine receptor (cho); in data set [4]; against Leukotriene C4 synthase) was “Not Active” each time. Further, the Ki result in data set [2] and in data set [4] was “Not Active” throughout.

On to `CC/C(=C(\c1ccccc1)c1ccc(OCCN(C)C)cc1)c1ccccc1` [TAMOXIFEN], for which the half-maximal inhibitory concentration (IC50) was 13300 nM in data set [1] (read-out: IC50); “Not Active” in data set [3]; 1070 nM at D(3) dopamine receptor (read-out: IC50); “Not Active” against Leukotriene C4 synthase; “Not Active” on Cytochrome P450 1A2. For the same compound, the Ki was 4700 nM in data set [1] (read-out: Ki), 364 nM on D(3) dopamine receptor (read-out: Ki) and “Not Active” on Cytochrome P450 1A2.

For `CSc1ccc(/C=C2/C(C)=C(CC(=O)O)c3cc(F)ccc32)cc1` [SULINDAC SULFIDE], the IC50 result (in data set [1] (hek293); in data set [2]; in data set [3]; on D(3) dopamine receptor (cho); in data set [4]; against Leukotriene C4 synthase) was “Not Active” throughout. Also, the Ki entry in data set [2] and in data set [4] was “Not Active” throughout.

Take `Nc1nc2ccc(OC(F)(F)F)cc2s1` [RILUZOLE]: the IC50 result (in data set [1] (hek293); in data set [2]; in data set [3]; on D(3) dopamine receptor (cho); in data set [4]; at Leukotriene C4 synthase) was “Not Active” throughout. Also, the Ki entry in data set [2] and in data set [4] was “Not Active” in each case.

For the compound `Cc1oncc1C(=O)Nc1ccc(C(F)(F)F)cc1` [LEFLUNOMIDE], the IC50 result (in data set [1] (hek293); in data set [2]; in data set [3]; at D(3) dopamine receptor (cho); in data set [4]; at Leukotriene C4 synthase) was “Not Active” each time. Besides, the Ki result in data set [2] and in data set [4] was “Not Active” in each case.

Consider `CN1CCN(CCCN2c3ccccc3Sc3ccc(Cl)cc32)CC1` [PROCHLORPERAZINE], for which the IC50 result (in data set [1] (hek293); in data set [3]; against Leukotriene C4 synthase) was “Not Active” each time.

For `CCOC(=O)N1CCC(=C2c3ccc(Cl)cc3CCc3cccnc32)CC1` [LORATADINE], the IC50 result (in data set [1] (hek293); in data set [2]; in data set [3]; at D(3) dopamine receptor (cho); in data set [4]; against Leukotriene C4 synthase) was “Not Active” throughout. Also, the Ki entry in data set [2] and in data set [4] was “Not Active” each time.

For the compound `CC(C)(C)NC(=O)[C@@H]1C[C@@H]2CCCC[C@@H]2CN1C[C@@H](O)[C@H](Cc1ccccc1)NC(=O)[C@H](CC(N)=O)NC(=O)c1ccc2ccccc2n1`, the IC50 result (in data set [2]; in data set [3]; in data set [4]; against Leukotriene C4 synthase; at Cytochrome P450 1A2) was “Not Active” each time. Besides, the Ki entry (in data set [2]; in data set [4]; at Cytochrome P450 1A2) was “Not Active” in each case.

As to `Cc1nc2n(c(=O)c1CCN1CCC(c3noc4cc(F)ccc34)CC1)CCCC2` [RISPERIDONE], the IC50 entry (in data set [1] (hek293); in data set [3]; on Leukotriene C4 synthase; against Cytochrome P450 1A2) was “Not Active” in each case. Besides, the Ki result on Cytochrome P450 1A2 is given as “Not Active”.

For the compound `CCCCc1oc2ccccc2c1C(=O)c1cc(I)c(OCCN(CC)CC)c(I)c1` [AMIODARONE], the IC50 result (in data set [3]; against Leukotriene C4 synthase) was “Not Active” in each case.

For the compound `N[C@@H](Cc1cc(I)c(Oc2ccc(O)c(I)c2)c(I)c1)C(=O)O` [LIOTHYRONINE], the IC50 result (in data set [1] (hek293); in data set [3]; at D(3) dopamine receptor (cho); against Leukotriene C4 synthase) was “Not Active” in each case.
